Results on seven compounds are retold here after ChEMBL document CHEMBL3045983, “Ajugatakasins A and B, New Diterpenoids fromAjuga decumbens, and Feeding Stimulative Activity of Related Neoclerodane Analogs toward the Turnip Sawfly” (1997).

Common to all, as to type: functional
For assay [1], the system named is Athalia rosae ruficornis. Briefly: Induction of feeding in larvae of Athalia rosae ruficornis on leaves of Ajuga decumbens assessed as feeding response measured for 10 seconds relative to control. More on the design: concentration or dose not given beside the values.
Assay [2] relates to Athalia rosae ruficornis. Put plainly: Induction of feeding in larvae of Athalia rosae ruficornis on leaves of Ajuga decumbens assessed as feeding response at 0.1 ug/64 mm'2 of filter paper measured for 10 seconds.
In assay [3] the test system is Athalia rosae ruficornis. Put plainly: Induction of feeding in larvae of Athalia rosae ruficornis on leaves of Ajuga decumbens assessed as feeding response at 10 ug/64 mm'2 of filter paper measured for 10 seconds.

As for `C/C=C(\C)C(=O)O[C@@H]1CC[C@]2(CO2)[C@]2(COC(C)=O)[C@@H](OC(C)=O)C[C@@H](C)[C@](C)(C[C@H](O)C3=CC(=O)OC3)[C@@H]12` [AJUGAMARIN A1], the Activity is given as 46.3% in assay [1], 0% in assay [2] and 0% in assay [3].

In the case of `C/C=C(\C)C(=O)O[C@@H](C[C@@]1(C)[C@H](C)C[C@H](OC(C)=O)[C@]2(COC(C)=O)[C@@H]1[C@H](OC(=O)/C(C)=C/C)CC[C@]21CO1)C1=CC(=O)OC1` [AJUGATAKASIN A], the Activity in assay [1] came to 28.4%; in assay [2], 0%; in assay [3] it was 0%.

As to `CC[C@H](C)C(=O)O[C@H]1[C@H](O)C[C@@H]2[C@@](C)([C@@H]3C[C@H]4C=CO[C@H]4O3)[C@H](C)C[C@H](OC(C)=O)[C@@]2(COC(C)=O)[C@@]12CO2` [CLERODENDRIN D], the Activity in assay [1] was found to be 0.08%; in assay [2], 88%; in assay [3] it was 100%.

As to `C/C=C(\C)C(=O)O[C@@H]1CC[C@]2(CO2)[C@]2(COC(C)=O)[C@@H](OC(C)=O)C[C@@H](C)[C@](C)(C[C@H](OC(=O)[C@@H](C)CC)C3=CC(=O)OC3)[C@@H]12` [AJUGAMARIN G1], the Activity in assay [1] was 9.3%; in assay [2], 0%; in assay [3] it was 0%.

For the compound `CCC(C)C(=O)O[C@@H]1CC[C@]2(CO2)[C@]2(COC(C)=O)[C@@H](OC(C)=O)C[C@@H](C)[C@](C)(C[C@H](O)C3=CC(=O)OC3)[C@@H]12` (stereo partly specified) [DIHYDROAJUGAMARIN], the Activity in assay [1] is on record as 8.6%; in assay [2], 0%; in assay [3], 0%.

For `CC[C@H](C)C(=O)O[C@@H](C[C@@]1(C)[C@H](C)C[C@H](OC(C)=O)[C@]2(COC(C)=O)[C@@H]1[C@H](OC(=O)[C@@H](C)CC)CC[C@]21CO1)C1=CC(=O)OC1` [AJUGATAKASIN B], the figures for the Activity in assay [1], in assay [2] and in assay [3] were 0.4%, 0% and 0%, respectively.

Consider `C/C=C(\C)C(=O)O[C@@H](C[C@@]1(C)[C@H](C)C[C@H](OC(C)=O)[C@]2(COC(C)=O)[C@@H]1[C@H](OC(=O)[C@@H](C)CC)CC[C@]21CO1)C1=CC(=O)OC1` [AJUGAMARIN H1], for which the results for the Activity in assay [1], in assay [2] and in assay [3] were 7%, 0% and 0%, respectively.
